In ChEMBL document CHEMBL4346709, “Design and Optimization Leading to an Orally Active TTK Protein Kinase Inhibitor with Robust Single Agent Efficacy” (J Med Chem, 2019):

Assays:
Homo sapiens [1] = organism: Homo sapiens; experiment: Selectivity ratio of IC50 for inhibition of recombinant human GST-tagged LRRK2 G2019S mutant catalytic domain (970 to 2527 residues) expressed in baculovirus expression system to IC50 for inhibition of Kinase Tracer 236 binding to recombinant human full-length GST-tagged TTk expressed in baculovirus expression system
Homo sapiens [2] = organism: Homo sapiens; experiment: Selectivity ratio of IC50 for recombinant human full length His-tagged JNK2 expressed in baculovirus expression system to IC50 for inhibition of Kinase Tracer 236 binding to recombinant human full-length GST-tagged TTk expressed in baculovirus expression system
[3] = molecular target: Mitogen-activated protein kinase 10 (Homo sapiens, UniProt P53779); experiment: Inhibition of recombinant human full length N-terminal GST-tagged JNK3 expressed in baculovirus expression system by Z'-LYTE assay
[4] = molecular target: T1, Dual specificity tyrosine-phosphorylation-regulated kinase 3 (Homo sapiens, UniProt O43781); experiment: Inhibition of recombinant human full length GST-tagged DYRK3 expressed in baculovirus expression system by Z'-LYTE assay
T1 sequence (O43781 whole entry): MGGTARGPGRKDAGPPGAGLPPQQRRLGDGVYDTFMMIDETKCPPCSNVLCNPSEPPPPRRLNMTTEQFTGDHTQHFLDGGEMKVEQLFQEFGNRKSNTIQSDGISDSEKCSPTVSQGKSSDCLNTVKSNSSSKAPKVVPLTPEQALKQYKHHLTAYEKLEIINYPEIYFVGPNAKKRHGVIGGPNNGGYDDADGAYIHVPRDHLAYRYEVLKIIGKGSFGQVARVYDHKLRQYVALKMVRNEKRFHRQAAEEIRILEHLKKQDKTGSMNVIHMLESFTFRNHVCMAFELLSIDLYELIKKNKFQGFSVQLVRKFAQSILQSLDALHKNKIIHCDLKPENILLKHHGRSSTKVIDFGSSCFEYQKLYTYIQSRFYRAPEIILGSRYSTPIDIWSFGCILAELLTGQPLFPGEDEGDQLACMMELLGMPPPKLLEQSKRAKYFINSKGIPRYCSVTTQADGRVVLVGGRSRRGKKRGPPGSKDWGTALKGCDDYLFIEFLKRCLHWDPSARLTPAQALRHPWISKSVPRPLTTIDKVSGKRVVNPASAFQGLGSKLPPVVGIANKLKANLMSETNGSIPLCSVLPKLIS

Sequence of Mitogen-activated protein kinase 10 (P53779 whole entry): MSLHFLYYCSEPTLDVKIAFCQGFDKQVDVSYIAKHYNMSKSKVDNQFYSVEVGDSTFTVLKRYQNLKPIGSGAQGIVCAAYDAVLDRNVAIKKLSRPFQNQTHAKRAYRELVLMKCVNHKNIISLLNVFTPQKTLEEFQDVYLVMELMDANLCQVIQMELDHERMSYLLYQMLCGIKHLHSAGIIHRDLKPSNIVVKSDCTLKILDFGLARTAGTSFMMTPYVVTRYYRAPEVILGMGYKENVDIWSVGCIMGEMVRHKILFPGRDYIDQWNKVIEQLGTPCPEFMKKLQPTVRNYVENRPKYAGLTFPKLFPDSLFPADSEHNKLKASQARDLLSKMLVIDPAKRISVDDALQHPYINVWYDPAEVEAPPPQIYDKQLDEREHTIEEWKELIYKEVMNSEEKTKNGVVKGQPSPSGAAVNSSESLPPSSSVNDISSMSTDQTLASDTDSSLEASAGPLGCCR

## C[C@@H](Oc1cc(C(=O)N(C)C)ccc1Nc1nc(O[C@H]2CC[C@@](C)(O)CC2)c2c(Cl)c[nH]c2n1)C(F)(F)F
Homo sapiens [1]
  Ratio IC50: < 100
Homo sapiens [2]
  Ratio IC50: < 100
[3]
  IC50: 0.107 nM
[4]
  IC50: 0.104 nM
